Test: Exchange rate constants (omega plot)
Settings: 10 mM complex; for kex: 20 mM HEPES pH 7.4, 100 mM NaCl, B1 8-24 μT, presat 4 s, 37° C., 11.7 T
Protocol: Exchange rate constants were calculated following a previously reported procedure. Measurements of on-resonance (Mz) and off-resonance (Mo) were acquired at different presaturation pulse powers between 350-1000 Hz (8-24 μT) applied for 4 seconds at 37° C. The exchange rate constant (kex) is calculated from the x-intercept from the plot of Mz/(Mo−Mz) against 1/ω1^2 (ω1 in rad/s). The rate constant, kex, is converted into units of s^−1. Samples contained 10 mM Co^II complex, 20 mM HEPES pH 7.4, and 100 mM NaCl.
The exchange rate constants were calculated by using a previously reported procedure. The magnetization of the on-resonance (Mz) and off-resonance (Mo) were acquired at different pre-saturation pulse powers between 350-1090 Hz applied for 4 seconds. To calculate the exchange rate constant (kb), the x-intercept (−1/kb^2) was obtained from the plot of Mz/(Mo−Mz) against 1/ω1^2 (ω1 in rad/s). Samples contained 16 mM [Co(TPT)]Cl2, 200 mM NaCl, and 40 mM MES or HEPES at pH 6.4-7.5. Measurements were carried out at 37° C.

SMILES	kex [s⁻¹]	kex, peak at 95 ppm (peak at 95 ppm, pH 7.4, 37° C.) [s⁻¹]	kex, peak at 112 ppm (peak at 112 ppm, pH 7.4, 37° C.) [s⁻¹]
NC(=O)CN1CCN(CC(N)=O)CCN(CC(N)=O)CC1.[Co+2] [[Co(TCMT)]^2+]	890		
NC(=O)CN1CCOCCOCCN(CC(N)=O)CCOCC1.[Co+2] [[Co(NOPE)]^2+]	240		
NC(=O)CN1CCN(CC(N)=O)CCN(CC(N)=O)CCN(CC(N)=O)CC1.[Co+2] [[Co(TCMC)]^2+]	300		
NC(=O)CN1CCCN(CC(N)=O)CCN(CC(N)=O)CCCN(CC(N)=O)CC1.[Co+2] [[Co(CCRM)]^2+]		910	510

Source: patent US10960088B2, “Macrocycles, cobalt and iron complexes of same, and methods of making and using same” (The Research Foundation for The State University of New York, priority 2013, dated 2021)
